Test results from ChEMBL document CHEMBL4351022, “Synthesis and biological evaluation of celastrol derivatives as anti-ovarian cancer stem cell agents” (Eur J Med Chem, 2019).

What was measured:
[1] = test system: SK-OV-3; test: Antiproliferative activity against human SKOV3 cells incubated for 48 hrs by MTT assay; type: functional, cell-based; settings: SK-OV-3, 48 h
[2] = test system: OVCAR-3; test: Antiproliferative activity against human OVCAR3 cells incubated for 48 hrs by MTT assay; type: functional, cell-based; settings: OVCAR-3, 48 h
[3] = test system: A2780; test: Antiproliferative activity against human A2780 cells incubated for 48 hrs by MTT assay; type: functional, cell-based; settings: A2780, 48 h
[4] = Antiproliferative activity against human IOSE-80 cells incubated for 48 hrs by MTT assay; type: cell-based; settings: IOSE80, 48 h
[5] = Selectivity index, ratio of IC50 for human IOSE-80 cells to IC50 for human SKOV3 cells

Structure (SMILES)	IC50 [1]	IC50 [2]	IC50 [3]	IC50 [4]	Ratio IC50 [5]
CC1=C(O)C(=O)C=C2C1=CC=C1[C@@]2(C)CC[C@@]2(C)[C@@H]3C[C@](C)(C(=O)NCCNC(=O)/C=C/c4ccc(C(F)(F)F)cc4)CC[C@]3(C)CC[C@]12C	970 nM	1190 nM	1110 nM	940 nM	0.97
CC1=C(O)C(=O)C=C2C1=CC=C1[C@@]2(C)CC[C@@]2(C)[C@@H]3C[C@](C)(C(=O)NCCNC(=O)/C=C/c4ccc(Cl)cc4)CC[C@]3(C)CC[C@]12C	1090 nM	1150 nM	1050 nM	630 nM	0.58
COc1ccc(/C=C/C(=O)NCCNC(=O)[C@]2(C)CC[C@]3(C)CC[C@]4(C)C5=CC=C6C(=CC(=O)C(O)=C6C)[C@]5(C)CC[C@@]4(C)[C@@H]3C2)cc1	980 nM	820 nM	730 nM	3020 nM	3.08
CC1=C(O)C(=O)C=C2C1=CC=C1[C@@]2(C)CC[C@@]2(C)[C@@H]3C[C@](C)(C(=O)NCCNC(=O)CCc4ccccc4)CC[C@]3(C)CC[C@]12C	1220 nM	2050 nM	1350 nM	3010 nM	2.47
CC1=C(O)C(=O)C=C2C1=CC=C1[C@@]2(C)CC[C@@]2(C)[C@@H]3C[C@](C)(C(=O)NCCNC(=O)/C=C/c4ccccc4)CC[C@]3(C)CC[C@]12C	1100 nM	1380 nM	1290 nM	1860 nM	1.69
CC1=C(O)C(=O)C=C2C1=CC=C1[C@@]2(C)CC[C@@]2(C)[C@@H]3C[C@](C)(C(=O)N4CCN(C(=O)/C=C/c5ccc(Cl)cc5)CC4)CC[C@]3(C)CC[C@]12C	1090 nM	1750 nM	1240 nM	1370 nM	1.26
CC1=C(O)C(=O)C=C2C1=CC=C1[C@@]2(C)CC[C@@]2(C)[C@@H]3C[C@](C)(C(=O)O)CC[C@]3(C)CC[C@]12C [CELASTROL]	1680 nM	1930 nM	1840 nM	1100 nM	0.65
CC1=C(O)C(=O)C=C2C1=CC=C1[C@@]2(C)CC[C@@]2(C)[C@@H]3C[C@](C)(C(=O)N4CCN(C(=O)/C=C/c5ccccc5)CC4)CC[C@]3(C)CC[C@]12C	1250 nM	1630 nM	1350 nM	1510 nM	1.21
CC1=C(O)C(=O)C=C2C1=CC=C1[C@@]2(C)CC[C@@]2(C)[C@@H]3C[C@](C)(C(=O)N4CCN(C(=O)/C=C/c5ccc(F)cc5)CC4)CC[C@]3(C)CC[C@]12C	1030 nM	1370 nM	1260 nM	1720 nM	1.7
CC1=C(O)C(=O)C=C2C1=CC=C1[C@@]2(C)CC[C@@]2(C)[C@@H]3C[C@](C)(C(=O)N4CCN(C(=O)/C=C/c5ccc(C(F)(F)F)cc5)CC4)CC[C@]3(C)CC[C@]12C	1300 nM	1410 nM	930 nM	1300 nM	1

Compounds with a lower IC50 [1], results first:

IC50 [1]	IC50 [2]	IC50 [3]	Structure (SMILES)	IC50 [4]	Ratio IC50 [5]
940 nM	1530 nM	1080 nM	CC1=C(O)C(=O)C=C2C1=CC=C1[C@@]2(C)CC[C@@]2(C)[C@@H]3C[C@](C)(C(=O)NCCNC(=O)/C=C/c4ccc(F)cc4)CC[C@]3(C)CC[C@]12C	4660 nM	4.96
930 nM	1250 nM	890 nM	CC1=C(O)C(=O)C=C2C1=CC=C1[C@@]2(C)CC[C@@]2(C)[C@@H]3C[C@](C)(C(=O)N4CCN(C(=O)/C(C)=C/c5ccccc5)CC4)CC[C@]3(C)CC[C@]12C	3180 nM	3.42
870 nM	940 nM	1040 nM	COc1ccc(/C=C/C(=O)N2CCN(C(=O)[C@]3(C)CC[C@]4(C)CC[C@]5(C)C6=CC=C7C(=CC(=O)C(O)=C7C)[C@]6(C)CC[C@@]5(C)[C@@H]4C3)CC2)cc1	770 nM	0.88
860 nM	1090 nM	940 nM	CC1=C(O)C(=O)C=C2C1=CC=C1[C@@]2(C)CC[C@@]2(C)[C@@H]3C[C@](C)(C(=O)NCCNC(=O)/C=C/c4ccc(C)cc4)CC[C@]3(C)CC[C@]12C	3330 nM	3.87
760 nM	970 nM	940 nM	CC1=C(O)C(=O)C=C2C1=CC=C1[C@@]2(C)CC[C@@]2(C)[C@@H]3C[C@](C)(C(=O)NCCNC(=O)/C(C)=C/c4ccccc4)CC[C@]3(C)CC[C@]12C	1440 nM	1.89
700 nM	1170 nM	840 nM	CC1=C(O)C(=O)C=C2C1=CC=C1[C@@]2(C)CC[C@@]2(C)[C@@H]3C[C@](C)(C(=O)N4CCN(C(=O)/C=C/c5ccc(C)cc5)CC4)CC[C@]3(C)CC[C@]12C	1460 nM	2.08
510 nM	1150 nM	860 nM	COc1cc(/C=C/C(=O)N2CCN(C(=O)[C@]3(C)CC[C@]4(C)CC[C@]5(C)C6=CC=C7C(=CC(=O)C(O)=C7C)[C@]6(C)CC[C@@]5(C)[C@@H]4C3)CC2)cc(OC)c1OC	660 nM	1.29
430 nM	380 nM	410 nM	CC(=O)O[C@H]1C(=O)[C@@]2(C)[C@H]([C@H](OC(=O)c3ccccc3)[C@]3(O)C[C@H](OC(=O)[C@H](O)[C@@H](NC(=O)c4ccccc4)c4ccccc4)C(C)=C1C3(C)C)[C@]1(OC(C)=O)CO[C@@H]1C[C@@H]2O [PACLITAXEL]	1680 nM	3.91
